Measurements reported in patent US10744181B2, “Glycopeptide derivatives for use in the treatment and/or prevention and/or attenuation of fibrosis diseases” (TFCHEM, priority 2017, dated 2020).
Marks after values point to notes of the source that are not given here.

Tests used:
Assay type in all cases: cell-based, human
Collagen III = Collagen III synthesis (ELISA) in normal fibroblasts; details: normal fibroblasts (NF), compound at 9.4 mM, 48 hours; ng collagen III per mg proteins
Description: (§1) Primary cultures of keloid fibroblasts (KF) and normal fibroblasts (NF) were obtained from operative wastes (keloid and abdominoplasty). After thawing, cells were grown in Dulbecco's modified Eagle's medium (DMEM) supplemented with 10% of fetal calf serum, 40 mg/l of gentamicin and 2 mg/l of fungizone (DMEMc), in an incubator at 37° C., 5% CO2. Culture medium was changed twice a week and cells were subcultured by trypsinization when confluence was reached. Cells were used under 10 passages.
(§2) Compound 1 was directly diluted in culture medium at 5 mg/ml.
(§3) Fibroblasts were seeded in 6 wells culture plate at the concentration of 0.08·10^6 cells/well (n=6). […]
(§4) The synthetized collagen quantity is expressed as the ratio of quantity of collagen vs quantity of total proteins in the sample.
(§5) The quantity of total protein was determined using a biochemical test, the bicinchoninic acid assay (BCA assay). […] Absorbance is read immediately at 550 nm (Spectrophotometer Multiscan Ex, Thermo). The standard curve is drawn and the sample protein concentration is determined with this curve. […]
Collagen III synthesis is performed by Enzyme-linked immunosorbent assay with an ELISA kit (USCN SEA576Hu, Euromedex). […] The enzyme-substrate reaction is terminated by the addition of sulfuric acid solution and the color change is measured spectrophotometrically at 450 nm. […]
(§6) Data are expressed as mean+/−sem. […]

Collagen I = Collagen I synthesis (ELISA) in normal fibroblasts; details: normal fibroblasts (NF), compound at 9.4 mM, 48 hours; pg collagen I per mg proteins
Description: as §1, §2, §3, §4, §5
(§7) Collagen I synthesis was evaluated by Enzyme-linked immunosorbent assay with an ELISA kit (USCN SEA571Hu, Euromedex). […] The enzyme-substrate reaction is terminated by the addition of sulfuric acid solution and the color change is measured spectrophotometrically at 450 nm. […]
as §6

[1] = tested on: collagen I/collagen III ratio; experiment: Collagen I/collagen III ratio in normal fibroblasts; details: normal fibroblasts (NF), compound at 9.4 mM
Description: as §1, §2
Fibroblasts were seeded in 6 wells culture plate at the concentration of 0.08·10^6 cells/well (n=6). After 48 hours of culture, wells were washed with 3 ml of PBS. 2 ml of each solution of tested compound were added per wells. […]
as §4
as §7, with “nm. The concentration of collagen I in the samples is then determined by comparing the optical density of the samples to the standard curve. The results were expressed as pg of collagen I by mg of proteins.” for “nm.”

SMILES: C[C@H](NC(=O)[C@H](C)NC(=O)[C@@H](N)CCCCNCC(F)(F)[C@]1(O)O[C@H](CO)[C@H](O)[C@H](O)[C@H]1O)C(=O)O [Compound 1]
- Protein Collagen III, Mean (Collagen III): 6.57*** ng/mg
- Protein Collagen I, Mean (Collagen I): 28.85*** pg/mg
- Ratio collagen I/collagen III [1]: 4.39.10^−3
